Several values for one entry are separate records, joined by “and”; a condition that tells them apart may be missing. Equal entries are not always repeated. Results filed as inconclusive are left out.
Tested on: BDF1 mice, B16 melanoma s.c., survival/tumor T/C
Assay: NCI In Vivo Anticancer Drug Screen. Data for tumor model B16 Melanoma (subcutaneous) in B6D2F1 (BDF1) mice
Method: The antitumor activity of compounds was measured in mice bearing transplantable tumors. Survival or tumor size were measured and the results are expressed as the measurement made in the treated group (T) divided by the measurement made in the vehicle treated control group (C). The tumor model used in this assay is B16 Melanoma (subcutaneous) in B6D2F1 (BDF1) mice

[1] = endpoint: median survival time, dose: 4.0 mg/kg/injection, schedule: Q01DX009 (ip), vehicle: saline, higher = longer survival
[2] = endpoint: median survival time, dose: 16.0 mg/kg/injection, schedule: Q01DX009 (ip), vehicle: saline, higher = longer survival
[3] = endpoint: median survival time, dose: 32.0 mg/kg/injection, schedule: Q01DX009 (ip), vehicle: saline, higher = longer survival
[4] = endpoint: median survival time, dose: 64.0 mg/kg/injection, schedule: Q01DX009 (ip), vehicle: saline, higher = longer survival

Structure (SMILES): CN(C)c1nc(N(C)C)nc(N(C)C)n1
- T/C (endpoint: median survival time, dose: 20.0 mg/kg/injection, schedule: Q01DX009 (ip), vehicle: Klucel (hydroxypropylcellulose) (HPC), higher = longer survival): 115 % of control
- T/C (endpoint: median survival time, dose: 40.0 mg/kg/injection, schedule: Q01DX009 (ip), vehicle: Klucel (hydroxypropylcellulose) (HPC), higher = longer survival): 118 % of control
- T/C (endpoint: median survival time, dose: 80.0 mg/kg/injection, schedule: Q01DX009 (ip), vehicle: Klucel (hydroxypropylcellulose) (HPC), higher = longer survival): 111 % of control
- T/C (endpoint: median survival time, dose: 160.0 mg/kg/injection, schedule: Q01DX009 (ip), vehicle: Klucel (hydroxypropylcellulose) (HPC), higher = longer survival): 115 % of control

Structure (SMILES): O=C(O)CCC(=O)O
- T/C (endpoint: median survival time, dose: 5.0 mg/kg/injection, schedule: Q01DX009 (ip), vehicle: water, higher = longer survival): 117 % of control and 102 % of control
- T/C (endpoint: median survival time, dose: 40.0 mg/kg/injection, schedule: Q01DX009 (ip), vehicle: water, higher = longer survival): 114 % of control [middle of 6 runs]
- T/C (endpoint: median survival time, dose: 80.0 mg/kg/injection, schedule: Q01DX009 (ip), vehicle: water, higher = longer survival): 97 % of control [middle of 5 runs]
- T/C (endpoint: median survival time, dose: 160.0 mg/kg/injection, schedule: Q01DX009 (ip), vehicle: water, higher = longer survival): 96 % of control [middle of 4 runs]

Structure (SMILES): CC1(C)N=C(N)N=C(N)N1c1ccc(OCCCNC(=O)Nc2cccc(S(=O)(=O)F)c2)c(Cl)c1
- T/C (endpoint: median survival time, dose: 50.0 mg/kg/injection, schedule: Q01DX009 (ip), vehicle: saline, higher = longer survival): 115 % of control
- T/C (endpoint: median survival time, dose: 100.0 mg/kg/injection, schedule: Q01DX009 (ip), vehicle: saline, higher = longer survival): 91 % of control

Structure (SMILES): COC(=O)C[C@](O)(CCCC(C)(C)O)C(=O)O[C@@H]1C(OC)=C[C@]23CCCN2CCc2cc4c(cc2[C@H]13)OCO4
- T/C (endpoint: median survival time, dose: 0.25 mg/kg/injection, schedule: Q01DX009 (ip), vehicle: acid diluted with saline, higher = longer survival): 118 % of control
- T/C (endpoint: median survival time, dose: 0.5 mg/kg/injection, schedule: Q01DX009 (ip), vehicle: acid diluted with saline, higher = longer survival): 100 % of control
- T/C (endpoint: median survival time, dose: 0.7 mg/kg/injection, schedule: Q01DX009 (ip), vehicle: acid diluted with saline, higher = longer survival): 101 % of control
- T/C (endpoint: median survival time, dose: 1.0 mg/kg/injection, schedule: Q01DX009 (ip), vehicle: acid diluted with saline, higher = longer survival): 103 % of control
- T/C (endpoint: median survival time, dose: 1.5 mg/kg/injection, schedule: Q01DX009 (ip), vehicle: acid diluted with saline, higher = longer survival): 101 % of control

Structure (SMILES): CSCS(=O)C[C@H](CO)NC(=O)/C=C/c1c(C)[nH]c(=O)[nH]c1=O (some centres undefined)
- T/C (endpoint: median survival time, dose: 0.08 mg/kg/injection, schedule: Q01DX009 (ip), vehicle: water, higher = longer survival): 90 % of control
- T/C (endpoint: median survival time, dose: 0.15 mg/kg/injection, schedule: Q01DX009 (ip), vehicle: water, higher = longer survival): 112 % of control
- T/C (endpoint: median survival time, dose: 0.3 mg/kg/injection, schedule: Q01DX009 (ip), vehicle: water, higher = longer survival): 96 % of control
- T/C (endpoint: median survival time, dose: 0.6 mg/kg/injection, schedule: Q01DX009 (ip), vehicle: water, higher = longer survival): 100 % of control

Structure (SMILES): CC1(C)OCC(CO)(Nc2nc(N3CC3)nc(N3CC3)n2)CO1
- T/C (endpoint: median survival time, dose: 1.7 mg/kg/injection, schedule: Q01DX009 (ip), vehicle: saline, higher = longer survival): 112 % of control
- T/C (endpoint: median survival time, dose: 2.5 mg/kg/injection, schedule: Q01DX009 (ip), vehicle: saline, higher = longer survival): 104 % of control
- T/C (endpoint: median survival time, dose: 3.8 mg/kg/injection, schedule: Q01DX009 (ip), vehicle: saline, higher = longer survival): 88 % of control

Structure (SMILES): C[CH2][Ge]1([CH2]C)[CH2]CC2(CCN(CCCN(C)C)C2)C[CH2]1
- T/C (endpoint: median survival time, dose: 2.0 mg/kg/injection, schedule: Q02DX009 (ip), vehicle: saline, higher = longer survival): 96 % of control
- T/C [1]: 98 % of control
- T/C (endpoint: median survival time, dose: 4.0 mg/kg/injection, schedule: Q02DX009 (ip), vehicle: saline, higher = longer survival): 110 % of control
- T/C (endpoint: median survival time, dose: 8.0 mg/kg/injection, schedule: Q01DX009 (ip), vehicle: saline, higher = longer survival): 101 % of control
- T/C (endpoint: median survival time, dose: 8.0 mg/kg/injection, schedule: Q02DX009 (ip), vehicle: saline, higher = longer survival): 102 % of control
- T/C [2]: 98 % of control
- T/C (endpoint: median survival time, dose: 16.0 mg/kg/injection, schedule: Q02DX009 (ip), vehicle: saline, higher = longer survival): 111 % of control
- T/C [3]: 112 % of control
- T/C (endpoint: median survival time, dose: 32.0 mg/kg/injection, schedule: Q02DX009 (ip), vehicle: saline, higher = longer survival): 109 % of control
- T/C [4]: 97 % of control

Structure (SMILES): CCCCC(=O)OCC(=O)[C@]1(O)Cc2c(O)c3c(c(O)c2[C@@H](OC2CC(NC(=O)C(F)(F)F)C(O)C(C)O2)C1)C(=O)c1c(OC)cccc1C3=O (some centres undefined)
- T/C (endpoint: median survival time, dose: 9.0 mg/kg/injection, schedule: Q01DX008 (ip), vehicle: distilled water + Tween-80, higher = longer survival): 104 % of control
- T/C (endpoint: median survival time, dose: 13.0 mg/kg/injection, schedule: Q01DX008 (ip), vehicle: distilled water + Tween-80, higher = longer survival): 118 % of control
- T/C (endpoint: median survival time, dose: 20.0 mg/kg/injection, schedule: Q01DX008 (ip), vehicle: distilled water + Tween-80, higher = longer survival): 110 % of control
- T/C (endpoint: median survival time, dose: 30.0 mg/kg/injection, schedule: Q01DX008 (ip), vehicle: distilled water + Tween-80, higher = longer survival): 124 % of control

Structure (SMILES): O=C(O)CCCCC1CCSS1 (centres undefined)
- T/C (endpoint: median survival time, dose: 7.81 mg/kg/injection, schedule: Q01DX009 (ip), vehicle: Klucel (hydroxypropylcellulose) (HPC), higher = longer survival): 116 % of control and 117 % of control
- T/C (endpoint: median survival time, dose: 15.62 mg/kg/injection, schedule: Q01DX009 (ip), vehicle: Klucel (hydroxypropylcellulose) (HPC), higher = longer survival): 112 % of control and 116 % of control
- T/C (endpoint: median survival time, dose: 125.0 mg/kg/injection, schedule: Q01DX009 (ip), vehicle: Klucel (hydroxypropylcellulose) (HPC), higher = longer survival): 99 % of control and 100 % of control

Structure (SMILES): O=NN(CCCl)C(=O)NC1CCCCC1
- T/C [1]: 115 % of control
- T/C (endpoint: median survival time, dose: 5.18 mg/kg/injection, schedule: Q01DX007 (ip), vehicle: Klucel (hydroxypropylcellulose) (HPC), higher = longer survival): 103 % of control
- T/C (endpoint: median survival time, dose: 8.64 mg/kg/injection, schedule: Q01DX007 (ip), vehicle: Klucel (hydroxypropylcellulose) (HPC), higher = longer survival): 88 % of control
- T/C (endpoint: median survival time, dose: 12.0 mg/kg/injection, schedule: Q01DX001 (ip), vehicle: Klucel (hydroxypropylcellulose) (HPC), higher = longer survival): 111 % of control and 112 % of control and 116 % of control
- T/C (endpoint: median survival time, dose: 14.4 mg/kg/injection, schedule: Q01DX007 (ip), vehicle: Klucel (hydroxypropylcellulose) (HPC), higher = longer survival): 124 % of control
- T/C [2]: 175 % of control
- T/C [3]: 105 % of control
- T/C (endpoint: median tumor weight (est.), dose: 8.0 mg/kg/injection, schedule: Q01DX009 (ip), vehicle: Klucel (hydroxypropylcellulose) (HPC), higher = larger tumour): 28 % of control and 47 % of control
- T/C (endpoint: median tumor weight (est.), dose: 12.5 mg/kg/injection, schedule: Q01DX001 (ip), vehicle: Klucel (hydroxypropylcellulose) (HPC), higher = larger tumour): 96 % of control and 110 % of control
- T/C (endpoint: median tumor weight (est.), dose: 16.0 mg/kg/injection, schedule: Q01DX009 (ip), vehicle: Klucel (hydroxypropylcellulose) (HPC), higher = larger tumour): 27 % of control
- T/C (endpoint: median tumor weight (est.), dose: 50.0 mg/kg/injection, schedule: Q01DX001 (ip), vehicle: Klucel (hydroxypropylcellulose) (HPC), higher = larger tumour): 21 % of control
- T/C (endpoint: median tumor weight (est.), dose: 100.0 mg/kg/injection, schedule: Q01DX001 (ip), vehicle: Klucel (hydroxypropylcellulose) (HPC), higher = larger tumour): 38 % of control

Structure (SMILES): CC(NSc1ccccc1[N+](=O)[O-])C(=O)O (centres undefined)
- T/C (endpoint: median survival time, dose: 12.5 mg/kg/injection, schedule: Q01DX009 (ip), vehicle: saline with Tween-80, higher = longer survival): 109 % of control
- T/C (endpoint: median survival time, dose: 25.0 mg/kg/injection, schedule: Q01DX009 (ip), vehicle: saline with Tween-80, higher = longer survival): 106 % of control
- T/C (endpoint: median survival time, dose: 50.0 mg/kg/injection, schedule: Q01DX009 (ip), vehicle: saline with Tween-80, higher = longer survival): 89 % of control
- T/C (endpoint: median survival time, dose: 100.0 mg/kg/injection, schedule: Q01DX009 (ip), vehicle: saline with Tween-80, higher = longer survival): 122 % of control

Structure (SMILES): c1ccc([As+](c2ccccc2)(c2ccccc2)c2ccccc2)cc1
- T/C (endpoint: median survival time, dose: 1.87 mg/kg/injection, schedule: Q01DX009 (ip), vehicle: Klucel (hydroxypropylcellulose) (HPC), higher = longer survival): 95 % of control
- T/C (endpoint: median survival time, dose: 3.75 mg/kg/injection, schedule: Q01DX009 (ip), vehicle: Klucel (hydroxypropylcellulose) (HPC), higher = longer survival): 109 % of control

Structure (SMILES): NNC(=O)c1ccncc1
- T/C [4]: 116 % of control
- T/C (endpoint: median survival time, dose: 128.0 mg/kg/injection, schedule: Q01DX009 (ip), vehicle: saline, higher = longer survival): 88 % of control

Source: PubChem BioAssay AID194 (DTP/NCI, 2004)
